We go through six compounds from ChEMBL document CHEMBL4219160, “The discovery of novel diarylpyri(mi)dine derivatives with high level activity against a wide variety of HIV-1 strains as well as against HIV-2” (Bioorg Med Chem, 2018).

pEC50, pIC50: −log10 of the molar value.

The target of data set [1] is Human immunodeficiency virus type 1 reverse transcriptase (Human immunodeficiency virus 1, UniProt Q72547). In words: Inhibition of wild type HIV1 reverse transcriptase using poly (A)/oligo (dT)15 as template/primer assessed as decrease in biotin-dUTP incorporation after 1 hr by ELISA. On the technique in general: An ELISA detects its analyte on a solid surface through an enzyme-linked reagent.

Data set [2] relates to Human immunodeficiency virus 2. In words: Antiviral activity against HIV2 ROD infected in human MT4 cells assessed as protection against virus-induced cytopathic effect after 5 days by MTT assay. In kind it is functional, organism-based. Particulars: Human immunodeficiency virus 2, ISOLATE ROD, MT4, 120 h. For orientation: Damage to the host cells serves as the signal in cytopathic effect assays.

The nature of data set [3]: Cytotoxicity against human MT4 cells assessed as reduction in cell viability after 5 days by MTT assay. It counts as cell-based. In general terms: Tetrazolium assays rely on reduction of a dye to a coloured formazan, in cell work by metabolically active cells.
Data set [4] relates to Human immunodeficiency virus 1. Nature of the data set: Antiviral activity against HIV1 harboring reverse transcriptase L100I mutant infected in human MT4 cells assessed as protection against virus-induced cytopathic effect after 5 days by MTT assay. In kind it is functional, organism-based. Particulars: Human immunodeficiency virus 1, MT4, 120 h.
Data set [5] concerns Human immunodeficiency virus 1. In words: Antiviral activity against HIV1 harboring reverse transcriptase K103N mutant infected in human MT4 cells assessed as protection against virus-induced cytopathic effect after 5 days by MTT assay. It counts as functional, organism-based. Particulars: Human immunodeficiency virus 1, MT4, 120 h.
Data set [6] relates to Human immunodeficiency virus 1. In words: Antiviral activity against HIV1 harboring reverse transcriptase Y181C mutant infected in human MT4 cells assessed as protection against virus-induced cytopathic effect after 5 days by MTT assay. Particulars: Human immunodeficiency virus 1, MT4, 120 h. In kind it is functional, organism-based.
Data set [7] concerns Human immunodeficiency virus 1. Nature of the data set: Antiviral activity against HIV1 harboring reverse transcriptase Y188L mutant infected in human MT4 cells assessed as protection against virus-induced cytopathic effect after 5 days by MTT assay. In kind it is functional, organism-based. Particulars: Human immunodeficiency virus 1, MT4, 120 h.
The test system of data set [8] is Human immunodeficiency virus 1. Nature of the data set: Antiviral activity against HIV1 harboring reverse transcriptase E138K mutant infected in human MT4 cells assessed as protection against virus-induced cytopathic effect after 5 days by MTT assay. In kind it is functional, organism-based. Particulars: Human immunodeficiency virus 1, MT4, 120 h.
The subject of data set [9] is Human immunodeficiency virus 1. In words: Antiviral activity against HIV1 harboring reverse transcriptase F227L/V106A double mutant infected in human MT4 cells assessed as protection against virus-induced cytopathic effect after 5 days by MTT assay. In kind it is functional, organism-based. Particulars: Human immunodeficiency virus 1, MT4, 120 h.
Data set [10] has as its system Human immunodeficiency virus 1. Nature of the data set: Antiviral activity against HIV1 harboring reverse transcriptase RES056 double mutant infected in human MT4 cells assessed as protection against virus-induced cytopathic effect after 5 days by MTT assay. In kind it is functional, organism-based. Particulars: Human immunodeficiency virus 1, MT4, 120 h.
Data set [11] has as its target Human immunodeficiency virus type 1 reverse transcriptase (Human immunodeficiency virus 1, UniProt Q72547, K103N/Y181C). In words: Inhibition of HIV1 reverse transcriptase K103N/Y181C double mutant using poly (A)/oligo (dT)15 as template/primer assessed as decrease in biotin-dUTP incorporation after 1 hr by ELISA.
A short description of a further data set: in vitro. Particulars: human, MT4 cells.
For data set [12], the system named is Human immunodeficiency virus 1. Nature of the data set: microbe, parasite or virus in culture. Particulars: Human immunodeficiency virus 1, 3B, MT4, 120 h.
Description: Antiviral activity against wild type HIV1 3B infected in human MT4 cells assessed as protection against virus-induced cytopathic effect after 5 days by MTT assay

Description for in vitro: Selectivity index, ratio of CC50 for human MT4 cells to EC50 for wild type HIV1 3B infected in human MT4 cells

In general, pIC50 refers to the negative decadic logarithm of the IC50, by convention in mol/L. By pEC50 is commonly meant the negative decadic logarithm of the EC50, by convention in mol/L. Broadly, the CC50 is the concentration giving 50% cytotoxicity. Consider `Cc1cc(/C=C/C#N)cc(C)c1Oc1cc(NCCN(C)C)nc(Nc2ccc(C#N)cc2)n1`, for which the pIC50 in [1] was 8.00; in data set [11] it was 7.70. Moreover, the pEC50 in [2] was less than 5.52; in data set [4], 8.00; in [5], 8.62; in data set [6], 8.05; in data set [7] it was 6.05; in data set [8], 7.39. Besides, the pEC50 in data set [9] was 6.51; in data set [10], 7.57; in [12], 8.83. The CC50 at 120 h in data set [3] is 3040 nM. Further, the selectivity ratio in the data set “in vitro” turned out to be 2050.

In the case of `Cc1cc(/C=C/C#N)cc(C)c1Oc1cc(NCCN2CCNCC2)nc(Nc2ccc(C#N)cc2)n1`, the values for the pIC50 in [1] and in data set [11] were 6.36 and 5.95, respectively. In addition, the pEC50 was less than 5.44 in data set [2]; 6.10 in data set [4]; 7.51 in data set [5]; 6.21 in [6]; less than 5.44 in [7]; 6.03 in data set [8]. Besides, the pEC50 in data set [9] is less than 5.44; in [10], 6.11; in data set [12], 7.61. Besides, the CC50 at 120 h in [3] was 3650 nM. Moreover, in the data set “in vitro”, the selectivity ratio turned out to be 148.

As for `Cc1cc(/C=C/C#N)cc(C)c1Oc1cc(NCC2CCCO2)nc(Nc2ccc(C#N)cc2)n1` (stereo not drawn), the pIC50 in data set [1] was 6.36; in data set [11], 4.06. In addition, the pEC50 in [2] was less than 3.57; in [4], 5.54; in [5], 7.04; in [6], 5.16; in data set [7] it was less than 3.57; in [8], 6.82. For the same compound, the pEC50 in data set [9] is 3.76; in [10], 4.35; in data set [12], 7.54. Besides, the CC50 at 120 h in [3] was more than 268000 nM. Also, the selectivity ratio in “in vitro” was more than 9240.

In the case of `Cc1cc(/C=C/C#N)cc(C)c1Oc1cc(NC2CC2)nc(Nc2ccc(C#N)cc2)n1`, the pIC50 was 7.30 in data set [1] and 6.62 in [11]. For the same compound, the pEC50 in data set [2] is less than 5.52; in [4], 7.64; in [5] it was 8.59; in data set [6] it was 7.46; in data set [7], 6.96; in [8], 8.00. Besides, the pEC50 is 6.46 in [9], 7.24 in data set [10] and 8.57 in data set [12]. For the same compound, the CC50 at 120 h in data set [3] was 3000 nM. Also, the selectivity ratio in the data set “in vitro” was determined as 1120.

As for `Cc1cc(/C=C/C#N)cc(C)c1Oc1cc(Cl)nc(Nc2ccc(C#N)cc2)n1`, the pIC50 in data set [1] is 7.70; in data set [11] it was 7.10. In addition, the pEC50 in data set [2] is less than 5.37; in [4] it was 8.06; in data set [5] it was 8.62; in data set [6], 7.96; in [7], 7.32; in data set [8], 8.03. Moreover, the pEC50 was 6.80 in [9], 7.36 in data set [10] and 8.77 in data set [12]. Besides, in data set [3], the CC50 at 120 h turned out to be 4310 nM. Also, the selectivity ratio in the data set “in vitro” amounted to 2560.

With `Cc1cc(/C=C/C#N)cc(C)c1Oc1cc(NCCN2CCOCC2)nc(Nc2ccc(C#N)cc2)n1`, the pIC50 is 6.85 in [1] and 6.47 in [11]. The pEC50 in data set [2] was 5.85; in data set [4], 8.00; in data set [5] it was 8.77; in data set [6] it was 8.14; in data set [7] it was 7.01; in data set [8], 8.12. Moreover, the results for the pEC50 in [9], in data set [10] and in data set [12] were 6.74, 7.68 and 8.81, respectively. Moreover, the cytotoxic concentration (CC50) at 120 h in data set [3] was 3540 nM. Besides, the selectivity ratio in “in vitro” was 2310.
